According to US9113629B2, “4-amino-6-(4-substituted-phenyl)-picolinates and 6-amino-2-(4-substituted-phenyl)-pyrimidine-4-carboxylates and their use as herbicides” (DOW AGROSCIENCES LLC, priority 2013, dated 2015):
Read-outs that look alike come from different tables or passages of the source.

Assays:
[1] = tested on: Key Broadleaf Weed and Crop Species; assay: Post-emergent Test II herbicidal activity (Table 5); assay type: in vivo; conditions: post-emergence, 336 h, 14 days after application; for pest or weed control at 70 g/ha: application rate 70 g ai/ha; for pest or weed control at 140 g/ha: application rate 140 g ai/ha
Procedure, shortened: (§1)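 Greenhouse post-emergent assay: seedlings (first/second true leaf) in Metro-Mix 360 were sprayed at 187 L/ha at a top rate plus twofold dilutions down to 1/16×; solvent-blank controls were included. Percent visual injury was read at 14 d.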

[2] = tested on: Key Grass and Sedge Weeds as well as Grass Crops; assay: Post-emergent Test II herbicidal activity (Table 6); assay type: in vivo; conditions: post-emergence, 336 h; for pest or weed control at 70 g/ha: 70 g ai/ha; for pest or weed control at 140 g/ha: 140 g ai/ha
Procedure, shortened: as §1

[3] = ABUTH: velvetleaf (Abutilon theophrasti), read-out: Visual Growth Reduction (%) 14 Days After Application, ABUTH
[4] = AMARE: redroot pigweed (Amaranthus retroflexus), read-out: Visual Growth Reduction (%) 14 Days After Application, AMARE
[5] = BRSNN: oilseed-rape, canola (Brassica napus), read-out: Visual Growth Reduction (%) 14 Days After Application, BRSNN
[6] = CHEAL: lambsquarters (Chenopodium album), read-out: Visual Growth Reduction (%) 14 Days After Application, CHEAL
[7] = EPHHL: wild poinsettia (Euphorbia heterophylla), read-out: Visual Growth Reduction (%) 14 Days After Application, EPHHL
[8] = HELAN: sunflower (Helianthus annuus), read-out: Visual Growth Reduction (%) 14 Days After Application, HELAN
[9] = VIOTR: wild pansy (Viola tricolor), read-out: Visual Growth Reduction (%) 14 Days After Application, VIOTR
[10] = CYPES: yellow nutsedge (Cyperus esculentus), read-out: Visual Growth Reduction (%) 14 Days After Application, CYPES
[11] = DIGSA: crabgrass (Digitaria sanguinalis), read-out: Visual Growth Reduction (%) 14 Days After Application, DIGSA
[12] = ECHCG: barnyardgrass (Echinochloa crus-galli), read-out: Visual Growth Reduction (%) 14 Days After Application, ECHCG
[13] = ORYSA: rice (Oryza sativa), crop, read-out: Visual Growth Reduction (%) 14 Days After Application, ORYSA
[14] = SETFA: giant foxtail (Setaria faberi), read-out: Visual Growth Reduction (%) 14 Days After Application, SETFA
[15] = SORVU: grain sorghum (Sorghum vulgare), read-out: Visual Growth Reduction (%) 14 Days After Application, SORVU
[16] = TRZSS (wheat, Triticum aestivum), crop, read-out: Visual Growth Reduction (%) 14 Days After Application, TRZSS
[17] = ZEAMX: maize, corn (Zea mays), crop, read-out: Visual Growth Reduction (%) 14 Days After Application, ZEAMX

How did the pest or weed control at 70 g/ha [1, 3] turn out when `COC(=O)c1nc(-c2ccc(I)cc2)cc(N)c1Cl` [Compound 158] was run?
Its pest or weed control at 70 g/ha is 95 to 100%.

What about the pest or weed control at 140 g/ha [1, 3] of the same molecule?
The pest or weed control at 140 g/ha was 95 to 100%.

What about the pest or weed control at 70 g/ha [1, 4] of the same molecule?
Its pest or weed control at 70 g/ha is 95 to 100%.

What about the pest or weed control at 140 g/ha [1, 4] of the same molecule?
The pest or weed control at 140 g/ha was 95 to 100%.

What about the pest or weed control at 70 g/ha [1, 5] of the same molecule?
Its pest or weed control at 70 g/ha is 60 to 74%.

What about the pest or weed control at 140 g/ha [1, 5] of the same molecule?
Its pest or weed control at 140 g/ha is 75 to 84%.

And the pest or weed control at 70 g/ha [1, 6]?
Its pest or weed control at 70 g/ha is 95 to 100%.

And the pest or weed control at 140 g/ha [1, 6]?
The pest or weed control at 140 g/ha was 95 to 100%.

And the pest or weed control at 70 g/ha [1, 7]?
The pest or weed control at 70 g/ha was 95 to 100%.

And the pest or weed control at 140 g/ha [1, 7]?
Its pest or weed control at 140 g/ha is 95 to 100%.

What about the pest or weed control at 70 g/ha [1, 8] of the same molecule?
Its pest or weed control at 70 g/ha is 75 to 84%.

And the pest or weed control at 140 g/ha [1, 8]?
Its pest or weed control at 140 g/ha is 75 to 84%.

What about the pest or weed control at 70 g/ha [1, 9] of the same molecule?
The pest or weed control at 70 g/ha was 0 to 29%.

And the pest or weed control at 140 g/ha [1, 9]?
The pest or weed control at 140 g/ha was 0 to 29%.

And the pest or weed control at 70 g/ha [2, 10]?
The pest or weed control at 70 g/ha was 45 to 59%.

What about the pest or weed control at 140 g/ha [2, 10] of the same molecule?
Its pest or weed control at 140 g/ha is 45 to 59%.

What about the pest or weed control at 70 g/ha [2, 11] of the same molecule?
The pest or weed control at 70 g/ha was 60 to 74%.

What about the pest or weed control at 140 g/ha [2, 11] of the same molecule?
The pest or weed control at 140 g/ha was 60 to 74%.

And the pest or weed control at 70 g/ha [2, 12]?
Its pest or weed control at 70 g/ha is 60 to 74%.

What about the pest or weed control at 140 g/ha [2, 12] of the same molecule?
The pest or weed control at 140 g/ha was 75 to 84%.

And the pest or weed control at 70 g/ha [2, 13]?
Its pest or weed control at 70 g/ha is 0 to 29%.

What about the pest or weed control at 140 g/ha [2, 13] of the same molecule?
The pest or weed control at 140 g/ha was 0 to 29%.

And the pest or weed control at 70 g/ha [2, 14]?
The pest or weed control at 70 g/ha was 0 to 29%.

And the pest or weed control at 140 g/ha [2, 14]?
Its pest or weed control at 140 g/ha is 0 to 29%.

And the pest or weed control at 70 g/ha [2, 15]?
Its pest or weed control at 70 g/ha is 85 to 94%.

What about the pest or weed control at 140 g/ha [2, 15] of the same molecule?
Its pest or weed control at 140 g/ha is 85 to 94%.

And the pest or weed control at 70 g/ha [2, 16]?
Its pest or weed control at 70 g/ha is 0 to 29%.

What about the pest or weed control at 140 g/ha [2, 16] of the same molecule?
Its pest or weed control at 140 g/ha is 45 to 59%.

And the pest or weed control at 70 g/ha [2, 17]?
The pest or weed control at 70 g/ha was 0 to 29%.

And the pest or weed control at 140 g/ha [2, 17]?
Its pest or weed control at 140 g/ha is 0 to 29%.
